From US11987588B2, “Modulators of the beta-3 adrenergic receptor useful for the treatment or prevention of heart failure and disorders related thereto” (Arena Pharmaceuticals, Inc., priority 2017, dated 2024) come the findings set out here.

Molecules are shown by their SMILES.

Beta-3 Adrenergic Receptor, sequence (P13945 whole entry, species assumed): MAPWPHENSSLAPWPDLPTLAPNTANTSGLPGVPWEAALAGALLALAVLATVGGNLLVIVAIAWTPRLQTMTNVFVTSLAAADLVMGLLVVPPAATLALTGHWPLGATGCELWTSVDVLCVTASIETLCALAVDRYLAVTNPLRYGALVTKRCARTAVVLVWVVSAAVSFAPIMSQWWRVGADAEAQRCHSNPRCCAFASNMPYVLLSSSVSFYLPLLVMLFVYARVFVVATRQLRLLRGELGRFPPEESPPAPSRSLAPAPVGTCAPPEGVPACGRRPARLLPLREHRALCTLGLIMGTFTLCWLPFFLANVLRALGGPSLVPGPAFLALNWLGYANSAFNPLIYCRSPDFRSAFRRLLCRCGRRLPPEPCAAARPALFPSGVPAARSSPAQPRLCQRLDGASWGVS

The test addresses Beta-3 Adrenergic Receptor (Homo sapiens (Human), UniProt P13945). Description: Homogeneous Time-Resolved Fluorescence (HTRF) cAMP antagonist assay, IC50 determination. Type of test: cell-based. The conditions noted are these: CHO-K1 cells stably expressing recombinant receptor, isoproterenol at EC90. In short, it runs like this:
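Antagonist mode: isoproterenol at its predetermined EC90 added after compound to recombinant CHO-K1 cells in IBMX-containing PBS, 1 h, room temperature. Compounds tested as 5-fold, 10-point dilutions, top final typically 10 or 100 μM. HTRF signal converted to cAMP via standard curve, giving IC50.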
On the technique in general: TR-FRET usually uses a lanthanide donor and a delayed reading to cut background.
For orientation: IC50 means the concentration needed to halve the response being measured. Regarding `CNS(=O)(=O)c1cccc(OC[C@@H](O)CNC2COC3(CCN(S(=O)(=O)c4cccc(-c5ccco5)c4)CC3)C2)c1` (stereo partly drawn) [Compound 78, 3-((2S)-3-(8-(3-(furan-2-yl)phenylsulfonyl)-1-oxa-8-azaspiro[4.5]decan-3-ylamino)-2-hydroxypropoxy)-N-methylbenzenesulfonamide], the concentration for half-maximal inhibition (IC50) is 20.7 nM.
Turning to `CNS(=O)(=O)c1cccc(OC[C@@H](O)CNC2COC3(CCN(S(=O)(=O)c4cccc(-c5ccc(CN)cc5)c4)CC3)C2)c1` (stereo partly drawn) [Compound 79, 3-((2S)-3-(8-(4′-(aminomethyl)biphenyl-3-ylsulfonyl)-1-oxa-8-azaspiro[4.5]decan-3-ylamino)-2-hydroxypropoxy)-N-methylbenzenesulfonamide], the 50% inhibitory concentration (IC50) was found to be 7.15 nM.
Next, `CCCn1cc(-c2cccc(S(=O)(=O)N3CCC4(CC3)CC(NC[C@H](O)COc3cccc(S(=O)(=O)NC)c3)CO4)c2)cn1` (stereo partly drawn) [Compound 80, 3-((2S)-2-hydroxy-3-(8-(3-(1-propyl-1H-pyrazol-4-yl)phenylsulfonyl)-1-oxa-8-azaspiro[4.5]decan-3-ylamino)propoxy)-N-methylbenzenesulfonamide]: 14.3 nM; `CNS(=O)(=O)c1cccc(OC[C@@H](O)CNC2COC3(CCN(S(=O)(=O)c4cccc(-c5cnn(CC(C)C)c5)c4)CC3)C2)c1` (stereo partly drawn) [Compound 81, 3-((2S)-2-hydroxy-3-(8-(3-(1-isobutyl-1H-pyrazol-4-yl)phenylsulfonyl)-1-oxa-8-azaspiro[4.5]decan-3-ylamino)propoxy)-N-methylbenzenesulfonamide]: 16.6 nM.
As to `CNS(=O)(=O)c1cccc(OC[C@@H](O)CNC2COC3(CCN(S(=O)(=O)c4cccc(-c5cnn(CC6CC6)c5)c4)CC3)C2)c1` (stereo partly drawn) [Compound 82, 3-((2S)-3-(8-(3-(1-(cyclopropylmethyl)-1H-pyrazol-4-yl)phenylsulfonyl)-1-oxa-8-azaspiro[4.5]decan-3-ylamino)-2-hydroxypropoxy)-N-methylbenzenesulfonamide], the half-maximal inhibitory concentration (IC50) came to 15.9 nM.
As for `CNS(=O)(=O)c1cccc(OC[C@@H](O)CNC2COC3(CCN(S(=O)(=O)c4cccc(-c5cccc(N(C)C)c5)c4)CC3)C2)c1` (stereo partly drawn) [Compound 83, 3-((2S)-3-(8-(3′-(dimethylamino)biphenyl-3-ylsulfonyl)-1-oxa-8-azaspiro[4.5]decan-3-ylamino)-2-hydroxypropoxy)-N-methylbenzenesulfonamide], the IC50 amounted to 99.9 nM.
Consider `CNS(=O)(=O)c1cccc(OC[C@@H](O)CNC2COC3(CCN(S(=O)(=O)c4cccc(-c5cc[nH]n5)c4)CC3)C2)c1` (stereo partly drawn) [Compound 84, 3-((2S)-3-(8-(3-(1H-pyrazol-3-yl)phenylsulfonyl)-1-oxa-8-azaspiro[4.5]decan-3-ylamino)-2-hydroxypropoxy)-N-methylbenzenesulfonamide], for which the half-inhibitory concentration (IC50) worked out at 9.09 nM.
As to `CNS(=O)(=O)c1cccc(OC[C@@H](O)CNC2COC3(CCN(S(=O)(=O)c4cccc(-c5ccc(S(N)(=O)=O)cc5)c4)CC3)C2)c1` (stereo partly drawn) [Compound 85, 3′-(3-((S)-2-hydroxy-3-(3-(N-methylsulfamoyl)phenoxy)propylamino)-1-oxa-8-azaspiro[4.5]decan-8-ylsulfonyl)biphenyl-4-sulfonamide], the 50% inhibitory concentration (IC50) worked out at 9.73 nM.
For `CNS(=O)(=O)c1cccc(OC[C@@H](O)CNC2COC3(CCN(S(=O)(=O)c4cccc(-c5ccc(NS(C)(=O)=O)cc5)c4)CC3)C2)c1` (stereo partly drawn) [Compound 86, 3-((2S)-2-hydroxy-3-(8-(4′-(methylsulfonamido)biphenyl-3-ylsulfonyl)-1-oxa-8-azaspiro[4.5]decan-3-ylamino)propoxy)-N-methylbenzenesulfonamide], the IC50 was 9.36 nM.
Consider `CNS(=O)(=O)c1cccc(OC[C@@H](O)CNC2COC3(CCN(S(=O)(=O)c4cccc(-c5ccc(CC(=O)O)cc5)c4)CC3)C2)c1` (stereo partly drawn) [Compound 87, 2-(3′-(3-((S)-2-hydroxy-3-(3-(N-methylsulfamoyl)phenoxy)propylamino)-1-oxa-8-azaspiro[4.5]decan-8-ylsulfonyl)biphenyl-4-yl)acetic acid], for which the 50% inhibitory concentration (IC50) stood at 66.1 nM.
Take `CNS(=O)(=O)c1cccc(OC[C@@H](O)CNC2COC3(CCN(S(=O)(=O)c4cccc(-c5cccnc5)c4)CC3)C2)c1` (stereo partly drawn) [Compound 88, 3-((2S)-2-hydroxy-3-(8-(3-(pyridin-3-yl)phenylsulfonyl)-1-oxa-8-azaspiro[4.5]decan-3-ylamino)propoxy)-N-methylbenzenesulfonamide]: the half-inhibitory concentration (IC50) came to 9.82 nM.
In the case of `O=S(=O)(NC1CC(F)(F)C1)c1cccc(OC[C@@H](O)CNC2COC3(CCN(S(=O)(=O)c4ccc5ccccc5c4)CC3)C2)c1` (stereo partly drawn) [Compound 89, N-(3,3-difluorocyclobutyl)-3-((2S)-2-hydroxy-3-(8-(naphthalen-2-ylsulfonyl)-1-oxa-8-azaspiro[4.5]decan-3-ylamino)propoxy)benzenesulfonamide], the IC50 stood at 429 nM.
In the case of `CN(C1CC1)S(=O)(=O)c1cccc(OC[C@@H](O)CNC2COC3(CCN(S(=O)(=O)c4ccc5ccccc5c4)CC3)C2)c1` (stereo partly drawn) [Compound 90, N-cyclopropyl-3-((2S)-2-hydroxy-3-(8-(naphthalen-2-ylsulfonyl)-1-oxa-8-azaspiro[4.5]decan-3-ylamino)propoxy)-N-methylbenzenesulfonamide], the 50% inhibitory concentration (IC50) turned out to be 49.2 nM.
Take `NCCNS(=O)(=O)c1cccc(OC[C@@H](O)CNC2COC3(CCN(S(=O)(=O)c4ccc5ccccc5c4)CC3)C2)c1` (stereo partly drawn) [Compound 91, N-(2-aminoethyl)-3-((2S)-2-hydroxy-3-(8-(naphthalen-2-ylsulfonyl)-1-oxa-8-azaspiro[4.5]decan-3-ylamino)propoxy)benzenesulfonamide]: the concentration for half-maximal inhibition (IC50) is 1120 nM.
Consider `CNC(=O)[C@@H](NS(=O)(=O)c1cccc(OC[C@@H](O)CNC2COC3(CCN(S(=O)(=O)c4ccc5ccccc5c4)CC3)C2)c1)[C@@H](C)O` (stereo partly drawn) [Compound 92, (2S,3R)-3-hydroxy-2-(3-((2S)-2-hydroxy-3-(8-(naphthalen-2-ylsulfonyl)-1-oxa-8-azaspiro[4.5]decan-3-ylamino)propoxy)phenylsulfonamido)-N-methylbutanamide], for which the half-inhibitory concentration (IC50) was determined as 1990 nM.
Turning to `C[C@@H](NS(=O)(=O)c1cccc(OC[C@@H](O)CNC2COC3(CCN(S(=O)(=O)c4ccc5ccccc5c4)CC3)C2)c1)C1CC1` (stereo partly drawn) [Compound 93, N—((R)-1-cyclopropylethyl)-3-((2S)-2-hydroxy-3-(8-(naphthalen-2-ylsulfonyl)-1-oxa-8-azaspiro[4.5]decan-3-ylamino)propoxy)benzenesulfonamide], the IC50 amounted to 112 nM.
`CC(C)(C)NS(=O)(=O)c1cccc(OC[C@@H](O)CNC2COC3(CCN(S(=O)(=O)c4ccc5ccccc5c4)CC3)C2)c1` (stereo partly drawn) [Compound 94, N-tert-butyl-3-((2S)-2-hydroxy-3-(8-(naphthalen-2-ylsulfonyl)-1-oxa-8-azaspiro[4.5]decan-3-ylamino)propoxy)benzenesulfonamide]: the IC50 turned out to be 59.8 nM.
As for `O=S(=O)(NC(CO)CO)c1cccc(OC[C@@H](O)CNC2COC3(CCN(S(=O)(=O)c4ccc5ccccc5c4)CC3)C2)c1` (stereo partly drawn) [Compound 95, N-(1,3-dihydroxypropan-2-yl)-3-((2S)-2-hydroxy-3-(8-(naphthalen-2-ylsulfonyl)-1-oxa-8-azaspiro[4.5]decan-3-ylamino)propoxy)benzenesulfonamide], the half-maximal inhibitory concentration (IC50) was 159 nM.
For `C[C@H](CO)NS(=O)(=O)c1cccc(OC[C@@H](O)CNC2COC3(CCN(S(=O)(=O)c4ccc5ccccc5c4)CC3)C2)c1` (stereo partly drawn) [Compound 96, 3-((2S)-2-hydroxy-3-(8-(naphthalen-2-ylsulfonyl)-1-oxa-8-azaspiro[4.5]decan-3-ylamino)propoxy)-N—((R)-1-hydroxypropan-2-yl)benzenesulfonamide], the IC50 came to 42.1 nM.
To `CCC(CC)CNS(=O)(=O)c1cccc(OC[C@@H](O)CNC2COC3(CCN(S(=O)(=O)c4ccc5ccccc5c4)CC3)C2)c1` (stereo partly drawn) [Compound 97, N-(2-ethylbutyl)-3-((2S)-2-hydroxy-3-(8-(naphthalen-2-ylsulfonyl)-1-oxa-8-azaspiro[4.5]decan-3-ylamino)propoxy)benzenesulfonamide] belongs 127 nM; to `CC(C)CCNS(=O)(=O)c1cccc(OC[C@@H](O)CNC2COC3(CCN(S(=O)(=O)c4ccc5ccccc5c4)CC3)C2)c1` (stereo partly drawn) [Compound 98, 3-((2S)-2-hydroxy-3-(8-(naphthalen-2-ylsulfonyl)-1-oxa-8-azaspiro[4.5]decan-3-ylamino)propoxy)-N-isopentylbenzenesulfonamide], 71.1 nM.
As for `O=S(=O)(NC1(CO)CC1)c1cccc(OC[C@@H](O)CNC2COC3(CCN(S(=O)(=O)c4ccc5ccccc5c4)CC3)C2)c1` (stereo partly drawn) [Compound 99, 3-((2S)-2-hydroxy-3-(8-(naphthalen-2-ylsulfonyl)-1-oxa-8-azaspiro[4.5]decan-3-ylamino)propoxy)-N-(1-(hydroxymethyl)cyclopropyl)benzenesulfonamide], the IC50 came to 121 nM.
To `C[C@@H](NS(=O)(=O)c1cccc(OC[C@@H](O)CNC2COC3(CCN(S(=O)(=O)c4ccc5ccccc5c4)CC3)C2)c1)C(C)(C)C` (stereo partly drawn) [Compound 100, N—((R)-3,3-dimethylbutan-2-yl)-3-((2S)-2-hydroxy-3-(8-(naphthalen-2-ylsulfonyl)-1-oxa-8-azaspiro[4.5]decan-3-ylamino)propoxy)benzenesulfonamide] belongs 256 nM.
On to `CCNS(=O)(=O)c1cccc(OC[C@@H](O)CNC2COC3(CCN(S(=O)(=O)c4ccc5ccccc5c4)CC3)C2)c1` (stereo partly drawn) [Compound 101, N-ethyl-3-((2S)-2-hydroxy-3-(8-(naphthalen-2-ylsulfonyl)-1-oxa-8-azaspiro[4.5]decan-3-ylamino)propoxy)benzenesulfonamide], for which the half-maximal inhibitory concentration (IC50) is 9.62 nM.
As to `CNS(=O)(=O)c1cccc(OC[C@@H](O)CNC2COC3(CCN(S(=O)(=O)c4cccc(-c5ccccn5)c4)CC3)C2)c1` (stereo partly drawn) [Compound 102, 3-((2S)-2-hydroxy-3-(8-(3-(pyridin-2-yl)phenylsulfonyl)-1-oxa-8-azaspiro[4.5]decan-3-ylamino)propoxy)-N-methylbenzenesulfonamide], the IC50 came to 26 nM.
